From ChEMBL document CHEMBL2074233, “Expression and pharmacological profile of the human organic cation transporters hOCT1, hOCT2 and hOCT3” (Br J Pharmacol, 2002)

How the values were obtained:
[1] = target: T1, Solute carrier family 22 member 3 (Homo sapiens, UniProt O75751); assay: TP_TRANSPORTER: inhibition of MPP+ uptake (MPP+: 0.025 uM) in OCT3-expressing HEK293 cells
T1 sequence (O75751 whole entry): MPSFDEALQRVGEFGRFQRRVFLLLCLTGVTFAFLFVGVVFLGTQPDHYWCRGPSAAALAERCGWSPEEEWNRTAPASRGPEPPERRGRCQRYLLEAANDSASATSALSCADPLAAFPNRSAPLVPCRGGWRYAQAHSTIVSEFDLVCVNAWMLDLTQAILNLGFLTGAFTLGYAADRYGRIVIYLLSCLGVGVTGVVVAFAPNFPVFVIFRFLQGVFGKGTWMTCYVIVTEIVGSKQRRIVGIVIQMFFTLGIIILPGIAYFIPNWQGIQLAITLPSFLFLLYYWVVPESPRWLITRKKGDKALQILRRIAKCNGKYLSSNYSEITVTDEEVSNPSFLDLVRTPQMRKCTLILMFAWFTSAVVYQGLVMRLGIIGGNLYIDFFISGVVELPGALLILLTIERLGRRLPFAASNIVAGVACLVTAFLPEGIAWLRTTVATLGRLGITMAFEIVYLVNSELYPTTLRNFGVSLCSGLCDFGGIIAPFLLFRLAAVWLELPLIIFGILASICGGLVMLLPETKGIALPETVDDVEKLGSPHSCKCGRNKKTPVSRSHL

[2] = target: T2, Solute carrier family 22 member 1 (Homo sapiens, UniProt O15245); assay: TP_TRANSPORTER: inhibition of MPP+ uptake (MPP+: 0.025 uM) in OCT1-expressing HEK293 cells
T2 sequence (O15245 whole entry): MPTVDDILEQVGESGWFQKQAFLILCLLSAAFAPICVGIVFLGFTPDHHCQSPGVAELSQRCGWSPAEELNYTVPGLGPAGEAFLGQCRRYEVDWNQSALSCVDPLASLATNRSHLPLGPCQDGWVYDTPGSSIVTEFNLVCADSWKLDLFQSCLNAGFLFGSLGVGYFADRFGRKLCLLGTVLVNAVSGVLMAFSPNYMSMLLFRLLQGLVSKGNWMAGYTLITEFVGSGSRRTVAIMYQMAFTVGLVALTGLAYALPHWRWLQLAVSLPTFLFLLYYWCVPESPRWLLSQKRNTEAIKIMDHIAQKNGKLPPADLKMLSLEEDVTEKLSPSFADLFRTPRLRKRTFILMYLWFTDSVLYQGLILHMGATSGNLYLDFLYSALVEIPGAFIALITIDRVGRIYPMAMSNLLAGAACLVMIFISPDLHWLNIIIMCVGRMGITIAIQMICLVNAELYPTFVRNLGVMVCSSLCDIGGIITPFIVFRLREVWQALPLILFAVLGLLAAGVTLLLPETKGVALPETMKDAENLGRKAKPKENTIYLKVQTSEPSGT

[3] = target: T3, Solute carrier family 22 member 2 (Homo sapiens, UniProt O15244); assay: TP_TRANSPORTER: inhibition of MPP+ uptake (MPP+: 0.025 uM) in OCT2-expressing HEK293 cells
T3 sequence (O15244 whole entry): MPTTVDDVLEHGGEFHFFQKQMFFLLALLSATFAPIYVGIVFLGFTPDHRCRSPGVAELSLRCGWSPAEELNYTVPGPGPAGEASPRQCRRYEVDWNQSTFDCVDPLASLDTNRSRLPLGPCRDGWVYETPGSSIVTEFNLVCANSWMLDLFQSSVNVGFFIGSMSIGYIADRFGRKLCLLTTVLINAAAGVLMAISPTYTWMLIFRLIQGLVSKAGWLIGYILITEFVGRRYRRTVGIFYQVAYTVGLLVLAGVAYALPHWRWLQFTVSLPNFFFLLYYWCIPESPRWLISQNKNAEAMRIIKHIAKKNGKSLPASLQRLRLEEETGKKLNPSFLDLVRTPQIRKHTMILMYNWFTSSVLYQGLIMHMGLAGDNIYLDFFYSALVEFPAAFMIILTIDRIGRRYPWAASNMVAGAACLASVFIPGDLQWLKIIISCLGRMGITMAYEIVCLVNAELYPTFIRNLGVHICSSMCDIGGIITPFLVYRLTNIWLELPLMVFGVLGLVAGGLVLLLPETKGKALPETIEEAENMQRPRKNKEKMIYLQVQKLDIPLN

SMILES	IC50 [1] [µM]	IC50 [2] [µM]	IC50 [3] [µM]
CCN1/C(=C/c2ccc3ccccc3[n+]2CC)C=Cc2ccccc21	0.09	0.98	1.13
CN(CCCl)C1c2ccccc2-c2ccccc21	0.05	> 0.3	0.1
C[C@]12C[C@H](O)[C@H]3[C@@H](CCC4=CC(=O)CC[C@@]43C)[C@@H]1CC[C@@H]2C(=O)CO [CORTICOSTERONE]	0.29	21.7	34.2
C[C@]12CC[C@@H]3c4ccc(O)cc4CC[C@H]3[C@@H]1CC[C@@H]2O [ESTRADIOL]	2.88	5.73	–
COc1cc(C(O)CNC(C)C)ccc1O (stereo not given) [METIPRENALINE]	4.38	> 100	> 100
CC(COc1ccccc1)N(CCCl)Cc1ccccc1 (stereo not given) [PHENOXYBENZAMINE]	6.13	2.72	–
COc1cc2nc(N3CCN(C(=O)c4ccco4)CC3)nc(N)c2cc1OC [PRAZOSIN]	12.6	1.84	–
CC(=O)[C@H]1CC[C@H]2[C@@H]3CCC4=CC(=O)CC[C@]4(C)[C@H]3CC[C@]12C [PROGESTERONE]	4.28	3.05	–
